Assay results published in ChEMBL document CHEMBL1201862, “PubChem BioAssay data set” (2004).
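Following 48 hours of exposure in 96-well plates, responses at five concentrations were used to interpolate endpoints linearly. GI50 marks 50% less growth.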 Active and inactive are the calls of the source. Cut-off read from the data, not from the text of the source: active = GI50 up to about 1.1 µM and inactive = higher.

Assays:
Experiment in all cases: NCI-60 cell line screen, 48 h
OVCAR-3 = tested on: OVCAR-3
TK-10 = tested on: TK-10
SK-MEL-5 = tested on: SK-MEL-5
CCRF-CEM = tested on: CCRF-CEM
OVCAR-8 = tested on: OVCAR-8
M14 = tested on: M14
NCI-H522 = tested on: NCI-H522
HL-60 = tested on: HL-60
U-251 = tested on: U-251
BT-549 = tested on: BT-549
HCT-116 = tested on: HCT-116
SW-620 = tested on: SW-620
MCF7 = tested on: MCF7
HT-29 = tested on: HT-29
SNB-75 = tested on: SNB-75
EKVX = tested on: EKVX
UACC-62 = tested on: UACC-62
Malme-3M = tested on: Malme-3M
SF-268 = tested on: SF-268
OVCAR-5 = tested on: OVCAR-5
SN12C = tested on: SN12C
UACC-257 = tested on: UACC-257
SNB-19 = tested on: SNB-19
MDA-MB-231 = tested on: MDA-MB-231
A498 = tested on: A498
KM12 = tested on: KM12
SK-OV-3 = tested on: SK-OV-3
HOP-62 = tested on: HOP-62
MDA-N = tested on: MDA-N
Hs-578T = tested on: Hs-578T
LOX IMVI = tested on: LOX IMVI
NCI-H460 = tested on: NCI-H460
ACHN = tested on: ACHN
NCI/ADR-RES = tested on: NCI/ADR-RES
SK-MEL-2 = tested on: SK-MEL-2
HCC 2998 = tested on: HCC 2998
A549 = tested on: A549
SF-539 = tested on: SF-539
HOP-92 = tested on: HOP-92
UO-31 = tested on: UO-31
K562 = tested on: K562
SF-295 = tested on: SF-295
OVCAR-4 = tested on: OVCAR-4
SK-MEL-28 = tested on: SK-MEL-28
HCT-15 = tested on: HCT-15
CAKI-1 = tested on: CAKI-1
IGROV-1 = tested on: IGROV-1
NCI-H226 = tested on: NCI-H226
COLO 205 = tested on: COLO 205
786-0 = tested on: 786-0
MDA-MB-435 = tested on: MDA-MB-435
PC-3 = tested on: PC-3
T47D = tested on: T47D
DU-145 = tested on: DU-145
NCI-H23 = tested on: NCI-H23
SR = tested on: SR
RPMI-8226 = tested on: RPMI-8226

Structure (SMILES): OCCOc1ccccc2cccc1-2
- GI50 (OVCAR-3): > 100 µM (inactive)
- GI50 (TK-10): > 100 µM (inactive)
- GI50 (SK-MEL-5): > 100 µM (inactive)
- GI50 (CCRF-CEM): > 100 µM (inactive)
- GI50 (OVCAR-8): > 100 µM (inactive)
- GI50 (M14): > 100 µM (inactive)
- GI50 (NCI-H522): > 100 µM (inactive)
- GI50 (HL-60): > 100 µM (inactive)
- GI50 (U-251): > 100 µM (inactive)
- GI50 (BT-549): > 100 µM (inactive)
- GI50 (HCT-116): > 100 µM (inactive)
- GI50 (SW-620): > 100 µM (inactive)
- GI50 (MCF7): > 100 µM (inactive)
- GI50 (HT-29): > 100 µM (inactive)
- GI50 (SNB-75): > 100 µM (inactive)
- GI50 (EKVX): > 100 µM (inactive)
- GI50 (UACC-62): > 100 µM (inactive)
- GI50 (Malme-3M): > 100 µM (inactive)
- GI50 (SF-268): > 100 µM (inactive)
- GI50 (OVCAR-5): > 100 µM (inactive)
- GI50 (SN12C): > 100 µM (inactive)
- GI50 (UACC-257): > 100 µM (inactive)
- GI50 (SNB-19): > 100 µM (inactive)
- GI50 (MDA-MB-231): > 100 µM (inactive)
- GI50 (A498): > 100 µM (inactive)
- GI50 (KM12): > 100 µM (inactive)
- GI50 (SK-OV-3): > 100 µM (inactive)
- GI50 (HOP-62): > 100 µM (inactive)
- GI50 (MDA-N): > 100 µM (inactive)
- GI50 (Hs-578T): > 100 µM (inactive)
- GI50 (LOX IMVI): > 100 µM (inactive)
- GI50 (NCI-H460): 73.6 µM (inactive)
- GI50 (ACHN): > 100 µM (inactive)
- GI50 (NCI/ADR-RES): > 100 µM (inactive)
- GI50 (SK-MEL-2): > 100 µM (inactive)
- GI50 (HCC 2998): > 100 µM (inactive)
- GI50 (A549): > 100 µM (inactive)
- GI50 (SF-539): > 100 µM (inactive)
- GI50 (HOP-92): > 100 µM (inactive)
- GI50 (UO-31): > 100 µM (inactive)
- GI50 (K562): 84.7 µM (inactive)
- GI50 (SF-295): > 100 µM (inactive)
- GI50 (OVCAR-4): 34 µM (inactive)
- GI50 (SK-MEL-28): > 100 µM (inactive)
- GI50 (HCT-15): > 100 µM
- GI50 (CAKI-1): > 100 µM (inactive)
- GI50 (IGROV-1): > 100 µM (inactive)
- GI50 (NCI-H226): > 100 µM (inactive)
- GI50 (COLO 205): > 100 µM (inactive)
- GI50 (786-0): > 100 µM (inactive)
- GI50 (MDA-MB-435): > 100 µM (inactive)
- GI50 (PC-3): > 100 µM (inactive)
- GI50 (T47D): 47.1 µM (inactive)
- GI50 (DU-145): > 100 µM (inactive)
- GI50 (NCI-H23): > 100 µM (inactive)
- GI50 (SR): 80 µM (inactive)
- GI50 (RPMI-8226): 61.8 µM (inactive)
